The values that follow come from patent publication US5863893A, “Factor VIIa inhibitors from kunitz domain proteins” (Genentech, Inc., priority 1995, dated 1999).

Test [1] deals with New Zealand white rabbits. Briefly: Rabbit deep medial injury model (carotid artery patency and thrombus weight). The class given is in vivo. As to conditions: for Clot (mgs): mean ±sem. As to the method:
Male New Zealand white rabbits (~4 kg) were anesthetized to surgical anesthesia plane with an IM injection of Ketamine/Xylaxine. The rabbits were placed supine on a restraining board, warmed to 37° C., and the neck and inner thigh area shaved. Teflon catheters were replaced in a marginal ear vein and femoral artery for drug delivery and sample collection respectively. Prior to treatment, blood samples were collected for coagulation tests (APTT and PT). Bleeding time was assessed from a cut made in the cuticle portion of a hind limb nail. Incisions were made in the neck region and the entire left common carotid artery and its branches were surgically isolated. An ultrasonic flow probe (Transonics®) was placed on the common carotid approximately 5 cm caudal to the common-internal bifurcation. After blood flow reached a stable baseline, drugs (saline or test compounds) were delivered via the marginal ear vein. A deflated embolectomy catheter (Fogarty®, 3F) was then introduced into the lumen of the common via an incision in the lingual branch. Blood flow through the artery was stopped briefly while the catheter was introduced and loosely secured with 2-0 silk tie at the incision site. After the catheter was in place and secure, blood flow was restored. The deflated balloon was advanced to within 2 mm of the flow probe and inflated with saline until resistance of the vessel wall was felt. The catheter was pulled back with a steady motion to the first branch and then deflated. This procedure was repeated a total of six times for each experimental animal, after which the catheter was removed. […] Over 40 minutes, blood samples were taken for APTT and PT measurements, cuticle bleeding times were assessed and blood flow through the carotid monitored. Duration of patency was defined as the total amount of time (maximum=40 minutes) that any measurable blood flow is detected in the artery. Patency rate refers to the percentage of animals tested who had carotid artery blood flow ≥5 minutes. At the end of the experiment the rabbit was euthanized and the carotid artery removed and opened. If any thrombus was present, it was removed, blotted and the weight recorded.
[Heparin was dosed as a 25 u/kg bolus followed by a continuous infusion of 1) 0.5 u/kg/min or 2) 1 u/kg/min. Other reagents were given as a 2 mg/kg IV bolus. With the exception of the patency data, values are expressed as means ±sem.]

The next test concerns normal human plasma. As to the kind of experiment: Activated partial thromboplastin time (APTT) assay. Type of test: biochemical. Here is the method:
For the activated partial thromboplastin time (APTT) assays, the activation time was set at 120 sec and acquisition time at 300 to 600 sec depending on the expected outcome of the assay. Citrated normal human plasma and inhibitor were incubated together. The sample (plasma and inhibitor) and activator (Instrumentation Laboratories Ellagic acid/Phospholipid mix Test Reagent) were automatically pipetted and incubated together for 2 min at 37° C., then CaCl2 was added and clotting time determined by means of optical assessment. The total incubation time of inhibitor with plasma was ca. 3 min before addition of activator, and 5 min before addition of CaCl2.

In another test the test system is rabbit plasma. Briefly: PT clotting time in rabbit plasma. The following applies: 40 μM, rabbit thromboplastin diluted two-fold. The class given is biochemical. As to the method:
Samples of rabbit plasma were assayed using an MLA 800 coagulometer and Dade reagents. Actin FS® was the activator in the APTT assay. Rabbit Thromboplastin with Ca++ was used for the PT assays; the rabbit thromboplastin was diluted two-fold. All mutant inhibitors tested prolonged clotting by at least one fold. […] A greater than 10 fold prolongation of the clotting time at 40 μM was observed.

A further test relates to TF-induced coagulation. The following applies: cited from earlier work.
A further test deals with TF-FVIIa (Homo sapiens, UniProt P08709). The following applies: read-out: Ki, competitive inhibition of TF-FVIIa activity; cited from earlier work.
Where [2] appears, read: 25 u/kg bolus then continuous infusion 0.5 u/kg/min.
Setting [3] is: 25 u/kg bolus then continuous infusion 1 u/kg/min.

Broadly, the Ki is a dissociation constant, usually derived from enzyme kinetics or from competition with a known ligand.

Sequence of TF-FVIIa (P08709 213-466 limits assumed): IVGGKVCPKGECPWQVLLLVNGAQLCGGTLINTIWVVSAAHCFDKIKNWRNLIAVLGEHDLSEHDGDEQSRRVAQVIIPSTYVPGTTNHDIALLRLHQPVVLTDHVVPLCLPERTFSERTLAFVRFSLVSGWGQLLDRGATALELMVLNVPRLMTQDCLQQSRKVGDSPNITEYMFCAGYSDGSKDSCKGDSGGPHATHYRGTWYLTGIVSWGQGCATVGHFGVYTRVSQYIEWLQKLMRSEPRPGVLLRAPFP
Sequence of TF-FVIIa (P08709 61-212 limits assumed): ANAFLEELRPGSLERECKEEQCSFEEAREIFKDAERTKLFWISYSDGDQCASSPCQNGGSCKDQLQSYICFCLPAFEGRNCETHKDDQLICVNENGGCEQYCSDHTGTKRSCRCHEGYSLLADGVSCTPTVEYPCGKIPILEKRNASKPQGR
Sequence of TF-FVIIa (P13726 33-295 partner): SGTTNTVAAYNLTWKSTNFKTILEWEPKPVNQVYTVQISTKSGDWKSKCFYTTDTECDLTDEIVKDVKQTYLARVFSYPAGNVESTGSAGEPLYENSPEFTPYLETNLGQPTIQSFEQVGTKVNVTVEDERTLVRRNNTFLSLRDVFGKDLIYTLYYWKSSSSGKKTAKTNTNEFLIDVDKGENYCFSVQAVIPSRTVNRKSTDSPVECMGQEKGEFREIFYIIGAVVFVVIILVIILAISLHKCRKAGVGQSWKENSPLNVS

In the case of “Alzheimer's amyloid β-protein precursor inhibitor (VREVCSEQAETGPCRAMISRWYFDVTEGKCAPFFYGGCGGNRNNFDTEEYCMAVCGSA) [APPI]”, the “Patency (%)” value in test [1] (2 mg/kg IV bolus, animals with carotid artery blood flow ≥5 minutes) came out at 40%. In addition, the “Clot (mgs)” value in test [1] (2 mg/kg IV bolus, thrombus weight) came out at 49.5 ± 18.2 mgs. Further, the “APTT clotting time, fold prolongation” value is on record as 3.6 fold with normal human plasma (40 μM inhibitor, uninhibited clotting time 31 s) and “ca. 3 fold” with normal human plasma (ca. 7 μM inhibitor). Further, the “PT, fold increase over baseline” value in the test on rabbit plasma stood at 1.4 fold.
In the case of “Bovine pancreatic trypsin inhibitor [BPTI]”, the “concentration needed to prolong the clotting time 1.4-fold in a PT assay” value with TF-induced coagulation is “ca. 75 pM”. On TF-FVIIa, the Ki is 30 µM.
Regarding Heparin, in test [1] (setting [2]), the “Patency (%)” value worked out at 67% and the “Clot (mgs)” value is listed as 13.6 ± 4.7 mgs. In test [1] (setting [3]), the “Patency (%)” value was 100% and the “Clot (mgs)” value turned out to be 19.1 ± 8.5 mgs. The “patency and clot size compared to the saline control (in words)” value in test [1] (doses as in Table III) was “significantly prolonged patency and reduced clot size”.
